According to patent publication EP0156785A1, “2-(Aminoalkyl)-acrylophenones, their preparation and their use” (S.A.R.L. GALEPHAR, priority 1984, dated 1985):

Assays:
rat = experiment: Triton WR 1339-induced hyperlipidaemia in the rat (plasma triglycerides and cholesterol); assay type: in vivo; details: Triton WR 1339 175 mg/kg (IV), plasma 24 h after Triton
Method: Cette propriété a été mise en évidence chez le rat au moyen de la méthode utilisant le Triton WR 1339 comme inducteur d'hyperlipémie.
Quatre heures après l'injection I.V. aux rats de 175 mg de Triton WR 1339 par kg de poids corporel, on leur injecte par voie intrapéritonéale soit du sérum physiologique (témoins) soit la substance à étudier. Les rats sont sacrifiés 24 heures après l'injection du Triton WR 1339 et les plasmas recueillis pour les dosages (résultats : Tableau I) des triglycérides et du cholestérol.

plaquettes = experiment: Platelet anti-aggregation activity, aggregation induced by adenosine triphosphate; assay type: cell-based; details: dose reducing platelet aggregation by 50%; inducer adénosine triphosphate; read-out: D.E.50 (the source's name)
Text: Les propriétés antiagrégantes plaquettaires des acrylophénones de la présente invention ont été mises en évidence au moyen d'adénosine triphosphate choisi comme agent inducteur de l'agrégation plaquettaire.
Les doses efficaces réduisant de 50% l'agrégation des plaquettes (D.E.50) ont été déterminées (Tableau II). Ces résultats montrent que les substances agissent à des doses de l'ordre micromolaire.

[1] = Qualitative solubility of the isolated product; assay type: physicochemical
Method: 3 g (0,1 M) de trioxyméthylène et 8,65 g (0,05 M) de dichlorhydrate de N-méthylpipérazine sont ajoutés à 6 g d'acétophénone dans 20 ml d'acide acétique. Le mélange est chauffé à reflux pendant 3 h. Le solvant est éliminé et le résidu jaune huileux est dissous dans 50 ml d'éthanol. Après élimimation du solvant, le résidu cristallise dans du méthanol.

[2] = treatment 4 mg/kg (IP) 4 h after Triton
[3] = treatment 2 mg/kg (IP) 4 h after Triton

IC50 (plaquettes) [nM] | solubilité dans l'acétone ([1]; acetone) | solubilité dans l'alcool ([1]; alcohol) | solubilité dans l'eau ([1]; water) | Structure (SMILES) | Diminution(%)sous l'influence du traitement cholestérolémie (rat; [2]) | Diminution(%)sous l'influence du traitement triglycéridémie (rat; [2]) | Diminution(%)sous l'influence du traitement cholestérolémie (rat; [3]) [%] | Diminution(%)sous l'influence du traitement triglycéridémie (rat; [3])
1320 | pratiquement insoluble dans l'acétone | peu soluble dans l'alcool | très soluble dans l'eau | C=C(CN1CCN(C)CC1)C(=O)c1ccccc1 [Exemple 1, Dichlorhydratede 2-(4-méthyl-1-pipérazinylméthyl)acrylophénone] | 57,5% | 47% | – | –
1940 | – | – | – | C=C(CN1CCOCC1)C(=O)c1ccccc1 [chlorhydratede 2-(1-morpholinométhyl)-acrylophénone] | 51,0% | 44,5% | – | –
1130 | – | – | – | C=C(CN(C)C)C(=O)c1ccccc1 [chlorhydratede 2-(N,N-diméthylaminométhyl)-acrylophénone] | – | – | 48 | 36,5%
